Legend:
[1] = preliminary pharmacokinetics in serum after Eudragit-formulated 3-IAld (90% 3-IAld/10% 13C8-labeled 3-IAld), mass spectrometry; format: in vivo
Procedure: Primary pharmacodynamics studies have been performed. The mode of action of 3-IAld occurs upon binding to AhR, both in vitro and in vivo. In vitro, 3-IAld induced luciferase activity in the H1L1.1c2 cell line containing a stably-transfected AhR-responsive firefly luciferase at the dose range […] (Zelante et al, 2013). […] Preliminary pharmacokinetics data have been obtained by administration of Eudragit-formulated 3-IAld in the composition 90% 3-IAld/10% 13C8-labeled 3-IAld and targeted/untargeted analysis by mass spectrometry in serum at different times (30 minutes (min), 1 hour (h), 2 h, 4.5h, 6 h, 24h). […] The presence of indole-3-formic acid was also confirmed with labelled 3-IAld (FIG. 13E), showing a similar kinetics and a peak level of about 25 μM at 30 min.

AhR [2] = assay: AhR luciferase reporter in mouse hepatoma cells H1L6.1c3; format: cell-based; set-up: dose or concentration left out as unconfirmed; conditions: higher RLU at 2 h lasting until 24h
Procedure: The ability of 1ME3CA was comparatively assessed here in mouse hepatoma cells (H1L6.1c3), kindly provided by Allison K. Ehrlich (Meyer Hall, University of California, Davis, United States), containing the stably integrated AhR xenobiotic responsive element driven by a firefly luciferase reporter plasmid, pGudLuc6.167. Cells were plated in MEMA (Gibco), supplemented with 10% fetal serum bovine and 1% penicillin-streptomycin solution, in 24-well plate and stimulated with different concentrations of either 3-IAld or 1ME3CA. Luciferase activity, calculated as relative light units (RLU) per microgram of protein and expressed as fold induction, was carried at 2 or 24 hours of exposure.

AhR [3] = target: T1, AhR (Homo sapiens, UniProt P35869); assay: AhR target gene expression by RT-PCR in A549, Calu-3, CaCo-2 and HepG32 cell lines; format: cell-based; set-up: endogenous in cells; host or cells: HepG2, A549, Calu-3, CaCo-2; conditions: for AhR activity at the higher 1000 M concentration: increased in CaCo-2 and HepG32 but not on Calu-3 cells
T1 sequence (P35869 11-848): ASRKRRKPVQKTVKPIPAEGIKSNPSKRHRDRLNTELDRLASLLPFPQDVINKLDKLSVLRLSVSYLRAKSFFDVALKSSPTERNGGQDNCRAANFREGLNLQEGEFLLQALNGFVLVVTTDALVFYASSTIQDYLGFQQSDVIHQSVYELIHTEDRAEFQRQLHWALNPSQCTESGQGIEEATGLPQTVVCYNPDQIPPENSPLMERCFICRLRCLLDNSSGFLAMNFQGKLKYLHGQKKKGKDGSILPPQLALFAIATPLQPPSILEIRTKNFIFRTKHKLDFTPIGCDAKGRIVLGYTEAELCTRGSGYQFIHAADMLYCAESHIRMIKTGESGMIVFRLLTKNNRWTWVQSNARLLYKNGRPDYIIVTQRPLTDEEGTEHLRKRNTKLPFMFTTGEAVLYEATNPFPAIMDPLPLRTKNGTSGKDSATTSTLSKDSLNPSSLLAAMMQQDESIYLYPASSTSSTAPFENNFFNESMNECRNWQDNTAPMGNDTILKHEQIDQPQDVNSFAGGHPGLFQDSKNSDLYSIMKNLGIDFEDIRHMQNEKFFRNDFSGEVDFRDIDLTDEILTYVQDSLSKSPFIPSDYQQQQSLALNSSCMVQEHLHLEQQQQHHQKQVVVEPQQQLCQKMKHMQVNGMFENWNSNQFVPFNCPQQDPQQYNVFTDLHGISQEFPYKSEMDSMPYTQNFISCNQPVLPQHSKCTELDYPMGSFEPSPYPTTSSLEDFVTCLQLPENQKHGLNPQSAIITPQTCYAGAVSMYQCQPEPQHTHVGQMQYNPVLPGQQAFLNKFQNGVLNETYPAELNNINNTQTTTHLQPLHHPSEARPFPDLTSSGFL
Procedure: ITE and FICZ are reference AhR agonists. Assays were performed at 4 hours post-incubation.
To further characterize the AhR agonistic potential of 1ME3CA, the ability of 3-IAld and 1ME3CA to activate target genes downstream AhR (Cyp1a1, Cyp2a1 and AhRR) in the A549 cell line derived from adenocarcinomic human alveolar basal epithelial cells, in the Calu-3 cell line derived from adenocarcinomic human bronchial epithelial cells, in the CaCo-2 cell line derived from human colon carcinoma and in the […] human liver cancer cell line was comparatively assessed. Cells were exposed to 1, 10, 100 and 1000 µM of either molecules or DMSO for 4 hours or overnight (on) at 37° C. before being assessed for the expression of the above-mentioned genes by RT-PCR.

[4] = single-dose pharmacokinetic study in healthy C57BL/6 mice, tissues and serum by mass spectrometry
Procedure: A single-dose pharmacokinetic (PK) study was performed on healthy C57BL/6 mice to compare 1ME3CA and 3-IAld at 0.36 mg/topo dose. Untreated naïve mice were used as the control. […] Blood, obtained by cardiac puncture and collected into EDTA-containing tubes, and organs (brain, lung, intestine, liver and kidney) were assessed. All samples were stored at −80° C. until use. To evaluate 1ME3CA and 3-IAld for functional activity, the expression of AhR-downstream genes were concomitantly evaluated in these mice.

[5] = test system: DSS+anti-CTLA-4-induced colitis; assay: DSS+anti-CTLA-4-induced colitis in 8-10 wk-old Il10−/− mice; format: in vivo
Procedure: Il10^−/− Mice received DSS (1%) in their drinking water and 100 μg anti-CTLA-4 monoclonal antibody intraperitoneally at days 0, 4 and 8 following the DSS administration. 3-IAld-Eudragit was given (18 mg/kg 3-IAld) intragastrically every other day throughout the experiment, starting 2 days before treatment. Animals were monitored daily for body weight and inflammatory pathology in the colon until 14 days after DSS administration.

[6] = test system: pathology after acute treatment with anti-CTLA-4 monoclonal antibody; assay: acute anti-CTLA-4 treatment in 8-10 week-old Il10−/− mice, without DSS; format: in vivo
Procedure: Il10^−/− mice were treated with anti-CTLA-4 monoclonal antibody and 3-IAld alone, as above (FIG. 6), without DSS. Animals were monitored daily for body weight and inflammatory pathology in the colon and sacrificed at 14 days after the first anti-CTLA-4 monoclonal antibody administration.

[7] = cited from earlier work
[8] = test system: graft-versus-host disease (GvHD); conditions: mouse, in vivo; cited from earlier work
[9] = test system: colitis, gastrointestinal and vaginal candidiasis; conditions: mouse, in vivo; cited from earlier work
[10] = enteric microparticles; cited from earlier work
[11] = 3-IAld-Eudragit 18 mg/kg, DSS 1%

For `Cn1cc(C(=O)O)c2ccccc21` [1-methylindole-3-carboxylic acid, 1-Methyl-1H-indole-3-carboxylic acid], the “time of peak levels as metabolite of 3-IAld” value ([1]; same kinetics as indole-3-formic acid) was 30 min, the “induction of luciferase activity (RLU, fold induction) versus 3-IAld” value (AhR [2]) was “more potent inducer of luciferase activity” and the “AhR agonistic activity versus 3-IAld (overall)” value (AhR [3]) was “comparable, if not superior”. For the same compound, the “expression of the IDO1 and IDO2 genes” value (AhR [3]) was “No activity was observed”, the “expression of AhR-dependent Cyp1a1, Cyp2a1 and AhRR genes” value (AhR [3]; cell lines tested, 4 hours or overnight) was “promoted the expression” and the “AhR activity at the higher 1000 M concentration” value (AhR [3]) was “inconsistent results”. For the same compound, the “extent of gene expression versus reference AhR ligands ITE or FICZ and 3-IAld” value (AhR [3]; similar concentration, i.e. 100 μM) was “comparable, or even superior”, the “detectability at 6 hours in serum, lung, and kidneys” value ([4]; after enteric 1ME3CA 18 mg/Kg) was “undetectable” and the Cmax values ([4]; after enteric 1ME3CA 18 mg/Kg, all organs and serum) was “very similar”. The “levels 24 hours after the administration in intestine, liver and brain” value ([4]; after enteric 1ME3CA 18 mg/Kg, versus control) was “still higher than control”, the “systemic levels versus those after oral 3-IAld” value ([4]; after oral 1ME3CA) was “more sustained and, as expected, significantly higher” and the “clearance of metabolites from the organs” value ([4]; after oral 3-IAld 18 mg/Kg) was “rapid clearance”. For the same compound, the “concentrations in the intestine, serum, and kidney” value ([4]; after oral 3-IAld 18 mg/Kg) was “basal” and the “level 24 hours after administration of 3-IAld” value ([4]; mice administered with 3-IAld) was “had disappeared”.

In the case of `O=Cc1c[nH]c2ccccc12` [3-IAld, 1H-indole-3-carbaldehyde], the “DSS+anti-CTLA-4-induced colitis (overall)” value ([5]; 3-IAld) is reported as “protects”, the “loss of body weight” value ([5]; 3-IAld-Eudragit 18 mg/kg intragastrically every other day, DSS 1%) is reported as “prevented” and the disease activity index [5, 11] is reported as “decreased”. For the same compound, the “inflammatory pathology (colon)” value [5, 11] was “decreased”, the “pathology after acute anti-CTLA-4 treatment (overall)” value ([6]; 3-IAld) was “protects” and the body weight loss ([6]; 3-IAld as in the DSS model, 14 days) was “prevented”. For the same compound, the “inflammatory pathology (colon)” value ([6]; 3-IAld, 14 days) was “ameliorated”, the “massive cellular infiltrate (submucosa)” value ([6]; 3-IAld, 14 days) was “reducing” and the “labelled 3-IAld serum level at 2 h” value ([1]; in vivo) was “sharply reduced levels”. The metabolic conversion ([1]; in vivo) was “rapid metabolic conversion”, the “time of peak of labelled 3-IAld in serum” value ([1]; in vivo) was 30 to 60 min and the “acidity (based on its pKa)” value [7] was “very weakly acidic”. The solubility in water [7] was “slightly soluble”, the gut epithelial damage [8] was “limited” and the inflammatory cytokine production [8] was “decreased”. The transepithelial bacterial translocation [8] was “reduced”, the “barrier integrity and production of antimicrobial peptides” value [9] was “enhanced” and the “inflammatory histopathology and barrier function” value [10] was “improved”. For the same compound, the “expression of the IDO1 and IDO2 genes” value (AhR [3]) was “No activity was observed”, the “AhR activity at the higher 1000 M concentration” value (AhR [3]) was “inconsistent results” and the “concentrations in all organs” value ([4]; after enteric 1ME3CA 18 mg/Kg) was “basal”. For the same compound, the “disappearance of 3-IAld from tissues” value ([4]; single oral 18 mg/Kg 3-IAld, enteric microparticles, after 2 hours, most tissues) was “rapidly disappeared”.

Reference: patent US20250090498A1, “TREATMENT OF PRIMARY CTLA-4 CHECKPOINT RELATED IMMUNODEFICIENCIES” (ADIENNE PHARMA & BIOTECH SA, priority 2023, published 2025)
